Experimental data published in patent US8192717B2, “Composition for diagnosing amyloid-related diseases” (Nagasaki University, priority 2004, dated 2012).

Assay: Radioactivity distribution in mouse body after intravenous administration of radioiodine labeled forms
Conditions: mouse, intravenous administration, mean (SD) of 3 to 5 mice
Experimental: Thereafter, 100 μl (0.5 to 1 μCi) of each labeled form was intravenously administered to each group consisting of three to five 5-week-old ddY male mice (25 to 30 g). 2, 10, 30, and 60 minutes after the intravenous administration, such mice were decapitated, and blood was collected. Thereafter, organs were excised, and the weight and radioactivity thereof were then measured.

| Structure (SMILES) | Distribution of radioactivity, Blood (2 min after administration) | Distribution of radioactivity, Blood (10 min after administration) | Distribution of radioactivity, Blood (30 min after administration) | Distribution of radioactivity, Blood (60 min after administration) | Distribution of radioactivity, Brain (2 min after administration) | Distribution of radioactivity, Brain (10 min after administration) | Distribution of radioactivity, Brain (30 min after administration) | Distribution of radioactivity, Brain (60 min after administration) | Distribution of radioactivity, Heart (2 min after administration) | Distribution of radioactivity, Heart (10 min after administration) | Distribution of radioactivity, Heart (30 min after administration) | Distribution of radioactivity, Heart (60 min after administration) | Distribution of radioactivity, Intestine (2 min after administration) | Distribution of radioactivity, Intestine (10 min after administration) | Distribution of radioactivity, Intestine (30 min after administration) | Distribution of radioactivity, Intestine (60 min after administration) | Distribution of radioactivity, Kidney (2 min after administration) | Distribution of radioactivity, Kidney (10 min after administration) | Distribution of radioactivity, Kidney (30 min after administration) | Distribution of radioactivity, Kidney (60 min after administration) | further results |
| --- | --- | --- | --- | --- | --- | --- | --- | --- | --- | --- | --- | --- | --- | --- | --- | --- | --- | --- | --- | --- | --- |
| COc1cc(/C=C/C(=O)c2cccc([125I])c2)ccc1O [[125I]Compound 31] | 4.90 (0.52) % ID/g | 3.80 (0.91) % ID/g | 1.84 (0.31) % ID/g | 1.15 (0.44) % ID/g | 2.52 (0.20) % ID/g | 1.28 (0.17) % ID/g | 0.40 (0.11) % ID/g | 0.35 (0.05) % ID/g | 5.58 (0.99) % ID/g | 2.88 (1.02) % ID/g | 1.44 (0.34) % ID/g | 1.38 (0.34) % ID/g | 2.50 (0.31) % ID/g | 10.52 (1.82) % ID/g | 20.60 (6.13) % ID/g | 29.31 (3.26) % ID/g | 11.99 (3.60) % ID/g | 9.16 (2.76) % ID/g | 5.00 (2.27) % ID/g | 4.31 (0.81) % ID/g | Distribution of radioactivity, Liver (2 min after administration): 15.71 (1.27) % ID/g; Distribution of radioactivity, Liver (10 min after administration): 18.55 (2.68) % ID/g; Distribution of radioactivity, Liver (30 min after administration): 7.67 (1.68) % ID/g; Distribution of radioactivity, Liver (60 min after administration): 4.05 (0.61) % ID/g; Distribution of radioactivity, Spleen (2 min after administration): 2.57 (0.42) % ID/g; Distribution of radioactivity, Spleen (10 min after administration): 1.80 (0.30) % ID/g; Distribution of radioactivity, Spleen (30 min after administration): 1.03 (0.04) % ID/g; Distribution of radioactivity, Spleen (60 min after administration): 0.88 (0.15) % ID/g |
| Nc1ccc(C=Cc2cc(=O)c3cc([125I])ccc3o2)cc1 [[125I]Compound 46] | 2.34 (0.16) % ID/g | 2.44 (0.19) % ID/g | 2.56 (0.64) % ID/g | 2.27 (0.47) % ID/g | 4.88 (0.47) % ID/g | 4.40 (0.44) % ID/g | 2.78 (0.72) % ID/g | 1.62 (0.40) % ID/g | 8.40 (0.47) % ID/g | 3.78 (0.35) % ID/g | 2.43 (0.70) % ID/g | 1.64 (0.29) % ID/g | 2.84 (0.18) % ID/g | 5.51 (0.55) % ID/g | 11.71 (1.27) % ID/g | 16.08 (2.44) % ID/g | 11.94 (1.49) % ID/g | 6.99 (0.91) % ID/g | 4.91 (1.07) % ID/g | 3.76 (0.91) % ID/g | Distribution of radioactivity, Liver (2 min after administration): 13.23 (1.65) % ID/g; Distribution of radioactivity, Liver (10 min after administration): 14.49 (1.10) % ID/g; Distribution of radioactivity, Liver (30 min after administration): 10.27 (1.84) % ID/g; Distribution of radioactivity, Liver (60 min after administration): 8.16 (1.33) % ID/g; Distribution of radioactivity, Spleen (2 min after administration): 4.23 (0.62) % ID/g; Distribution of radioactivity, Spleen (10 min after administration): 3.64 (0.38) % ID/g; Distribution of radioactivity, Spleen (30 min after administration): 2.92 (0.73) % ID/g; Distribution of radioactivity, Spleen (60 min after administration): 2.16 (0.85) % ID/g |
| CNc1ccc(C=Cc2cc(=O)c3cc([125I])ccc3o2)cc1 [[125I]Compound 47] | 3.21 (0.38) % ID/g | 2.44 (0.082) % ID/g | 2.19 (0.29) % ID/g | 1.79 (0.23) % ID/g | 2.84 (0.35) % ID/g | 2.96 (0.25) % ID/g | 1.86 (0.30) % ID/g | 0.99 (0.09) % ID/g | 6.92 (1.41) % ID/g | 3.31 (0.69) % ID/g | 2.09 (0.39) % ID/g | 1.47 (0.27) % ID/g | 2.59 (0.38) % ID/g | 8.55 (1.21) % ID/g | 16.72 (2.58) % ID/g | 19.16 (2.63) % ID/g | 10.41 (1.33) % ID/g | 7.05 (0.56) % ID/g | 5.48 (0.97) % ID/g | 3.52 (1.36) % ID/g | Distribution of radioactivity, Liver (2 min after administration): 14.55 (2.64) % ID/g; Distribution of radioactivity, Liver (10 min after administration): 14.41 (2.52) % ID/g; Distribution of radioactivity, Liver (30 min after administration): 11.13 (1.63) % ID/g; Distribution of radioactivity, Liver (60 min after administration): 7.82 (0.94) % ID/g; Distribution of radioactivity, Spleen (2 min after administration): 3.88 (0.74) % ID/g; Distribution of radioactivity, Spleen (10 min after administration): 4.42 (1.05) % ID/g; Distribution of radioactivity, Spleen (30 min after administration): 2.66 (0.47) % ID/g; Distribution of radioactivity, Spleen (60 min after administration): 1.51 (0.19) % ID/g |
| CN(C)c1ccc(C=Cc2cc(=O)c3cc([125I])ccc3o2)cc1 [[125I]Compound 48] | 14.54 (3.37) % ID/g | 3.50 (1.13) % ID/g | 1.5 (0.22) % ID/g | 0.80 (0.21) % ID/g | 0.70 (0.10) % ID/g | 0.72 (0.14) % ID/g | 1.02 (0.23) % ID/g | 0.77 (0.25) % ID/g | 8.89 (1.94) % ID/g | 4.00 (0.93) % ID/g | 2.36 (0.51) % ID/g | 1.42 (0.38) % ID/g | 1.52 (0.09) % ID/g | 4.8 (0.74) % ID/g | 11.98 (1.26) % ID/g | 14.91 (4.18) % ID/g | 9.04 (1.72) % ID/g | 5.58 (1.07) % ID/g | 5.16 (1.06) % ID/g | 3.94 (1.25) % ID/g | Distribution of radioactivity, Liver (2 min after administration): 20.56 (3.98) % ID/g; Distribution of radioactivity, Liver (10 min after administration): 15.09 (2.63) % ID/g; Distribution of radioactivity, Liver (30 min after administration): 12.82 (1.96) % ID/g; Distribution of radioactivity, Liver (60 min after administration): 8.79 (1.80) % ID/g; Distribution of radioactivity, Spleen (2 min after administration): 5.09 (0.75) % ID/g; Distribution of radioactivity, Spleen (10 min after administration): 4.06 (0.66) % ID/g; Distribution of radioactivity, Spleen (30 min after administration): 3.15 (0.70) % ID/g; Distribution of radioactivity, Spleen (60 min after administration): 2.82 (0.36) % ID/g |
